The target in assay [1] is T1, rat adrenergic α1A receptor (Rattus norvegicus, UniProt P43140).
T1 construct: rat adrenergic α1A receptor obtained from Wistar Rat submaxillary glands; from tissue; host or cells: Wistar rat submaxillary glands
T1 sequence (P43140 1-466): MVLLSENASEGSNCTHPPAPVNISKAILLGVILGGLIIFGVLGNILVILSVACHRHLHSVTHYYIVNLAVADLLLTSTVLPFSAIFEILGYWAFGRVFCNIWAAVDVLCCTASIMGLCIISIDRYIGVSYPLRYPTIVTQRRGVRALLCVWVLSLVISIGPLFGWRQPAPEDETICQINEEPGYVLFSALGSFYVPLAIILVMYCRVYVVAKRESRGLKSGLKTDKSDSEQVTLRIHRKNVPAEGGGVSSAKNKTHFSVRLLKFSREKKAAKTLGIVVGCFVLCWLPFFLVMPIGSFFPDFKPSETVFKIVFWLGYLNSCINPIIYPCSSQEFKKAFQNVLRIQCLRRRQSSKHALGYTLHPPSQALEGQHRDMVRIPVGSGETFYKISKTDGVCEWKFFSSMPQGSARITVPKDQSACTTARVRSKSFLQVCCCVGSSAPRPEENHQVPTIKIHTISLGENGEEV
As to the kind of experiment: Adrenergic α1A radioligand binding ([3H]Prazosin). The conditions noted are these: read-out: Adrenergic (0.1 μM) a1A, percent inhibition of specific binding; compound at 0.1 μM; 0.25 nM [3H]Prazosin. As for the experimental part:
To evaluate in radioligand binding assays the activity of compounds of the invention, rat adrenergic α1A receptor obtained from Wistar Rat submaxillary glands (Michel, A. et al, Br. J. Pharmacol. 98:883, 1989) in a modified Tris-HCl buffer (50 mM Tris-HCl buffer, pH 7.4, 0.5 mM EDTA) was used. Compounds of the invention were incubated with 0.25 nM [^3H]Prazosin for 60 min at 25° C. Non-specific binding was estimated in the presence of 10 μM phentolamine Receptor proteins were filtered and washed, the filters were then counted to determine [^3H]Prazosin specifically bound. […] Compounds of the invention were tested in this biochemical assay and percent inhibition of specific binding was determined.

For assay [2], the target named is T2, human recombinant adrenergic α2C receptor (Homo sapiens, UniProt P18825).
T2 construct: expressed in transfected cells; host or cells: insect Sf9 cells
T2 sequence (P18825 1-462): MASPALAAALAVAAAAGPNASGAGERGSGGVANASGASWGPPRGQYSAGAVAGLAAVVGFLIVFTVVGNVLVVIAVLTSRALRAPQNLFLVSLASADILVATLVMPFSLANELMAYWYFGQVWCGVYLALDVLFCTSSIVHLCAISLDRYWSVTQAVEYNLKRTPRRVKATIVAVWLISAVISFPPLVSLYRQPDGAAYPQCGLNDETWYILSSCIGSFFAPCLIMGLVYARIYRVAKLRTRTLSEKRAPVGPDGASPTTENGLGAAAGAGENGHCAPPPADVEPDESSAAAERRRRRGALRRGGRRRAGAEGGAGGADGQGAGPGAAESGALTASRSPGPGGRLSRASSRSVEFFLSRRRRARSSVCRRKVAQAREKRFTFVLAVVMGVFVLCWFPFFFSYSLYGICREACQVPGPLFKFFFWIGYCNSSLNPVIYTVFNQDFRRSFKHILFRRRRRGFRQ
Briefly: Adrenergic α2C radioligand binding ([3H]MK-912). The conditions noted are these: read-out: Adrenergic (0.1 μM) a2C, percent inhibition of specific binding; compound at 0.1 μM; 1 nM [3H]MK-912. As for the experimental part: To evaluate in radioligand binding assays the activity of compounds of the invention, human recombinant adrenergic α2C receptor expressed in insect Sf9 cells (Uhlen, S. et al, J. Pharmacol. Exp. Ther. 271:1558, 1994) in a modified Tris-HCl buffer (50 mM Tris-HCl, pH 7.4, 12.5 mM MgCl2, 2 mM EDTA) was used. Compounds of the invention were incubated with 1 nM [^3H]MK-912 for 60 min at 25° C. Non-specific binding was estimated in the presence of 10 μM WB-4101. Receptor proteins were filtered and washed, the filters were then counted to determine [^3H]MK-912 specifically bound. […] Compounds of the invention were tested in this biochemical assay and percent inhibition of specific binding was determined.

Assay [3] has as its target T3, human recombinant serotonin (5-Hydroxytryptamine) 5-HT2C receptor (Homo sapiens, UniProt P28335).
T3 construct: expressed in transfected cells; host or cells: CHO-K1
T3 sequence (P28335 33-458): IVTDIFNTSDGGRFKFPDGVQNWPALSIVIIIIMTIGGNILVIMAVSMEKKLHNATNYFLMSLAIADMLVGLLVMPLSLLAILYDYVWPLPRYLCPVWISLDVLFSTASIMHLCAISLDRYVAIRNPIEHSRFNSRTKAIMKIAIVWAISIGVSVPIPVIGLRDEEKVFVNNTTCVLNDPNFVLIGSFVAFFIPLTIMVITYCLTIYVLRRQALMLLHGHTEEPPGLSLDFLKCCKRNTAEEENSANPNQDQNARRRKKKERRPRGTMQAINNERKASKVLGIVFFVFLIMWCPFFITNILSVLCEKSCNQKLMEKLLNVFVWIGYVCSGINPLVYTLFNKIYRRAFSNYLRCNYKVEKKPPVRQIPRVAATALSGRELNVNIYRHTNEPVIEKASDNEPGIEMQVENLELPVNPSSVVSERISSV
As to the kind of experiment: Serotonin 5-HT2C radioligand binding ([3H]Mesulergine). The conditions noted are these: compound at 0.1 μM; read-out: Inhibition of ligand binding, Serotonin 5-HT2C (percent inhibition of specific binding). As for the experimental part:
Compounds of the invention were incubated with 1 nM [^3H]Mesulergine for 60 min at 25° C. Non-specific binding was estimated in the presence of 1 μM Mianserin. Receptor proteins were filtered and washed, the filters were then counted to determine [^3H]Mesulergine specifically bound.

Assay [4] deals with T4, human recombinant serotonin (5-Hydroxytryptamine) 5-HT5A receptor (Homo sapiens, UniProt P47898).
T4 construct: expressed in transfected cells; host or cells: CHO-K1
Briefly: Serotonin 5-HT5A radioligand binding ([3H]LSD). The conditions noted are these: compound at 0.1 μM; read-out: Inhibition of ligand binding, Serotonin 5-HT5A (percent inhibition of specific binding). As for the experimental part:
Compounds of the invention were incubated with 1.7 nM [^3H]Lysergic acid diethylamide (LSD) for 60 min at 37° C. […] Receptor proteins were filtered and washed, the filters were counted to determine [^3H]LSD specifically bound.

The target in assay [5] is T5, human recombinant serotonin (5-Hydroxytryptamine) 5-HT7 receptor (Homo sapiens, UniProt P34969).
T5 construct: expressed in transfected cells; host or cells: CHO
As to the kind of experiment: Serotonin 5-HT7 radioligand binding ([3H]LSD). The conditions noted are these: compound at 0.1 μM; read-out: Inhibition of ligand binding, Serotonin 5-HT7 (percent inhibition of specific binding). As for the experimental part:
Lysergic acid diethylamide (LSD) for 120 min. at 25° C. […] Receptor proteins were filtered and washed, the filters were then counted to determine [^3H]LSD specifically bound.

T5 sequence (P34969 whole entry): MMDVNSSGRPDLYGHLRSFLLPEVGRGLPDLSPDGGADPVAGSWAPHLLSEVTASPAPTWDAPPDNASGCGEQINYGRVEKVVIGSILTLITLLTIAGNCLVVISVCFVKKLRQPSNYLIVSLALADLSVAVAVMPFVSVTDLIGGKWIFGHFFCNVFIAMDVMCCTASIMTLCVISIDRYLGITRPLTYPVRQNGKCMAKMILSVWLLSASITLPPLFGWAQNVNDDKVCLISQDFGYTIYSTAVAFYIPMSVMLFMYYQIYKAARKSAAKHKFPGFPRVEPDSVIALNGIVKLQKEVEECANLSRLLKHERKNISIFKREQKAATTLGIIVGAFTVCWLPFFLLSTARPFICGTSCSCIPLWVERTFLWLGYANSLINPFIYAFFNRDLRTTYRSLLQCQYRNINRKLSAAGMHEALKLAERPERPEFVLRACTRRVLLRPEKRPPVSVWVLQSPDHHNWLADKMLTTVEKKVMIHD
T4 sequence (P47898 whole entry): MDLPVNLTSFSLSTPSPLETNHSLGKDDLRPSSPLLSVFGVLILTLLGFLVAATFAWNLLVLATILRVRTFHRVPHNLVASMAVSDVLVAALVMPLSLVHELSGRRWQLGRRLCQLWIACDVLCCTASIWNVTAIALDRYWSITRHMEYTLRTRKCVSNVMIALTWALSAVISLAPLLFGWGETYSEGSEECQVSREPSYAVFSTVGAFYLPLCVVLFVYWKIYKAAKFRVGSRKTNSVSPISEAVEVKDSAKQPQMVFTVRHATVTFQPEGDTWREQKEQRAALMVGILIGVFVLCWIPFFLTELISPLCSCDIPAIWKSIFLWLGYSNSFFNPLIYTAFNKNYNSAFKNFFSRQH

For the compound `Cc1ccc2c(c1)c1c(n2-c2ccccc2-c2ccc3c(ccn3C)c2)CCN(C)C1` [Compound No. 85, 2,8-dimethyl-5-(2-(1-methyl-1H-indol-5-yl)phenyl)-2,3,4,5-tetrahydro-1H-pyrido[4,3-b]indole], the inhibition at 0.1 µM in assay [1] was 24%; in assay [2] it was 46%; in assay [3], 50%; in assay [4] it was 50%; in assay [5], 26%.
As for `Cc1ccc2c(c1)c1c(n2-c2cscc2C(=O)N(C)C)CCN(C)C1` [Compound No. 152], the inhibition at 0.1 µM stood at 6% in assay [1]; 12% in assay [2]; 22% in assay [3]; 14% in assay [4]; 15% in assay [5].
In the same order, the values of `CC(=O)Nc1ccc(-c2cscc2-n2c3c(c4cc(C)ccc42)CN(C)CC3)cn1` [Compound 56] are 49%, 2%, 38%, 51% and 70%.
Regarding `Cc1ccc2c(c1)c1c(n2-c2cscc2-c2sccc2C)CCN(C)C1` [Compound 39], the inhibition at 0.1 µM was found to be 31% in assay [1]; 50% in assay [2]; 93% in assay [3]; 83% in assay [4]; 97% in assay [5].
In the same order, the values of `Cc1ccc2c(c1)c1c(n2-c2cccc(-c3cccn3C)c2)CCN(C)C1` [Compound No. 69, 2,8-dimethyl-5-(3-(1-methyl-1H-pyrrol-2-yl)phenyl)-2,3,4,5-tetrahydro-1H-pyrido[4,3-b]indole] are 8%, -4%, 79%, 36% and 25%.
In the same order, the values of `Cc1ccc2c(c1)c1c(n2-c2cscc2-c2ccc(O)nc2)CCN(C)C1` [Compound 49] are 15%, -10%, 19%, 52% and 86%.
In the same order, the values of `Cc1ccc2c(c1)c1c(n2-c2cccc(-c3ccc(C)s3)c2)CCN(C)C1` [Compound No. 64, 2,8-dimethyl-5-(3-(5-methylthiophen-2-yl)phenyl)-2,3,4,5-tetrahydro-1H-pyrido[4,3-b]indole] are -8%, 12%, 83%, 30% and 31%.
Regarding `Cc1ccc2c(c1)c1c(n2-c2ccccc2-c2ccc(C)s2)CCN(C)C1` [Compound No. 81, 2,8-dimethyl-5-(2-(5-methylthiophen-2-yl)phenyl)-2,3,4,5-tetrahydro-1H-pyrido[4,3-b]indole], the inhibition at 0.1 µM came out at 34% in assay [1]; 41% in assay [2]; 89% in assay [3]; 69% in assay [4]; 72% in assay [5].
On to `Cc1ccc2c(c1)c1c(n2-c2ccccc2-c2ccc(F)nc2)CCN(C)C1` [Compound No. 84, 5-(2-(6-fluoropyridin-3-yl)phenyl)-2,8-dimethyl-2,3,4,5-tetrahydro-1H-pyrido[4,3-b]indole], for which the inhibition at 0.1 µM in assay [1] is 61%; in assay [2], 23%; in assay [3], 75%; in assay [4], 29%; in assay [5], 25%.
For `Cc1ccc2c(c1)c1c(n2-c2cccc(-c3ccc(F)nc3)c2)CCN(C)C1` [Compound 44, 5-(3-(6-fluoropyridin-3-yl)phenyl)-2,8-dimethyl-2,3,4,5-tetrahydro-1H-pyrido[4,3-b]indole], the inhibition at 0.1 µM in assay [1] was determined as 15%; in assay [2], 10%; in assay [3], 83%; in assay [4], 61%; in assay [5] it was 40%.
For `CNC(=O)c1ccc(-c2cscc2-n2c3c(c4cc(C)ccc42)CN(C)CC3)cc1` [Compound No. 155] the same measures were 80%, 0%, 31%, 69% and 94%.
`Cc1ccc2c(c1)c1c(n2-c2ccc(-c3ccc(F)cc3)cn2)CCN(C)C1` [Compound No. 140, 5-(5-(4-fluorophenyl)pyridin-2-yl)-2,8-dimethyl-2,3,4,5-tetrahydro-1H-pyrido[4,3-b]indole]: the inhibition at 0.1 µM in assay [1] came to 31%; in assay [2], 53%; in assay [3] it was 100%; in assay [4], 52%; in assay [5] it was 41%.
With `CC(=O)Nc1ccc(-c2ccc(-n3c4c(c5cc(C)ccc53)CN(C)CC4)nc2)cn1` [Compound No. 139, N-(6′-(2,8-dimethyl-3,4-dihydro-1H-pyrido[4,3-b]indol-5(2H)-yl)-3,3′-bipyridin-6-yl)acetamide], the inhibition at 0.1 µM in assay [1] was 22%; in assay [2] it was 2%; in assay [3], 65%; in assay [4] it was -4%; in assay [5] it was 13%.
In the case of `Cc1ccc2c(c1)c1c(n2-c2ccc(-c3cnc(N(C)C)nc3)cn2)CCN(C)C1` [Compound No. 138, 5-(6-(2,8-dimethyl-3,4-dihydro-1H-pyrido[4,3-b]indol-5(2H)-yl)pyridin-3-yl)-N,N-dimethylpyrimidin-2-amine], the inhibition at 0.1 µM is 32% in assay [1]; -2% in assay [2]; 86% in assay [3]; 13% in assay [4]; 6% in assay [5].

What is called inhibition is the change of the read-out against control, counted positive when it falls.
